According to ChEMBL document CHEMBL5505961, “RIPK1 inhibitors: A key to unlocking the potential of necroptosis in drug development” (Eur J Med Chem, 2024):
Values belong to the compound of their own block, whether it stands above or below them.

What was measured:
[1] = test system: Jurkat; test: cells; details: Homo sapiens, 48 h
[2] = test system: HT-29; test: cells; details: Homo sapiens, HT-29, 1 h
[3] = cells; details: Homo sapiens, HT-29, 1 h
[4] = molecular target: T1, Receptor-interacting serine/threonine-protein kinase 1 (Homo sapiens, UniProt Q13546)
T1 sequence (Q13546 whole entry): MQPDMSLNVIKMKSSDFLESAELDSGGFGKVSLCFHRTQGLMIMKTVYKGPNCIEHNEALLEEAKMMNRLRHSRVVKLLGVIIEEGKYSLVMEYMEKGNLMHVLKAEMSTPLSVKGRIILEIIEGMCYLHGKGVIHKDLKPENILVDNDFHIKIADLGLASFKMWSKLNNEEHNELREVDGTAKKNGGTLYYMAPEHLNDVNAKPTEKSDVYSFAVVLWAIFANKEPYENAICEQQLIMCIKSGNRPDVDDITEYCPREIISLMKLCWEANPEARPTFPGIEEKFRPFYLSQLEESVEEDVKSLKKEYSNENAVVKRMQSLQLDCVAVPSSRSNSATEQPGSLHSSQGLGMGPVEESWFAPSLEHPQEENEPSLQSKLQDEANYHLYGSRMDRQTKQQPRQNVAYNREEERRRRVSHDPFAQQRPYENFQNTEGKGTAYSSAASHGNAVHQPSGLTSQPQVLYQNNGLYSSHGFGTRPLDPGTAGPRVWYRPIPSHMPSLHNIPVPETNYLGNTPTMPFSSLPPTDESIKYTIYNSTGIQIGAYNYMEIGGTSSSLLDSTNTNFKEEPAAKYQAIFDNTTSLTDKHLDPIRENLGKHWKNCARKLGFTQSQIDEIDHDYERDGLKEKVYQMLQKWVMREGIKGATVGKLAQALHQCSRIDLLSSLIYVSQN

[5] = molecular target: T1, Receptor-interacting serine/threonine-protein kinase 1; test: biochemical
[6] = test system: Jurkat; test: cells; details: Homo sapiens, 24 h
[7] = test system: Jurkat; test: cells; details: Homo sapiens
[8] = test system: MEF; test: cells; details: Mus musculus, 24 h
[9] = test system: HT-22; test: cells; details: Mus musculus, HT-22, 24 h
[10] = test system: HT-29; test: cells; details: Homo sapiens, HT-29, 24 h
[11] = test system: L929; test: cells; details: Mus musculus, L929, 24 h
[12] = molecular target: T1, Receptor-interacting serine/threonine-protein kinase 1; remark: listed apart in the source
[13] = in vitro; details: mouse, liver microsomes
[14] = test system: HT-29; test: cells; details: Homo sapiens
[15] = molecular target: T1, Receptor-interacting serine/threonine-protein kinase 1; remark: listed apart in the source
[16] = molecular target: T2, Eukaryotic translation initiation factor 2-alpha kinase 3 (Homo sapiens, UniProt Q9NZJ5)
T2 sequence (Q9NZJ5 whole entry): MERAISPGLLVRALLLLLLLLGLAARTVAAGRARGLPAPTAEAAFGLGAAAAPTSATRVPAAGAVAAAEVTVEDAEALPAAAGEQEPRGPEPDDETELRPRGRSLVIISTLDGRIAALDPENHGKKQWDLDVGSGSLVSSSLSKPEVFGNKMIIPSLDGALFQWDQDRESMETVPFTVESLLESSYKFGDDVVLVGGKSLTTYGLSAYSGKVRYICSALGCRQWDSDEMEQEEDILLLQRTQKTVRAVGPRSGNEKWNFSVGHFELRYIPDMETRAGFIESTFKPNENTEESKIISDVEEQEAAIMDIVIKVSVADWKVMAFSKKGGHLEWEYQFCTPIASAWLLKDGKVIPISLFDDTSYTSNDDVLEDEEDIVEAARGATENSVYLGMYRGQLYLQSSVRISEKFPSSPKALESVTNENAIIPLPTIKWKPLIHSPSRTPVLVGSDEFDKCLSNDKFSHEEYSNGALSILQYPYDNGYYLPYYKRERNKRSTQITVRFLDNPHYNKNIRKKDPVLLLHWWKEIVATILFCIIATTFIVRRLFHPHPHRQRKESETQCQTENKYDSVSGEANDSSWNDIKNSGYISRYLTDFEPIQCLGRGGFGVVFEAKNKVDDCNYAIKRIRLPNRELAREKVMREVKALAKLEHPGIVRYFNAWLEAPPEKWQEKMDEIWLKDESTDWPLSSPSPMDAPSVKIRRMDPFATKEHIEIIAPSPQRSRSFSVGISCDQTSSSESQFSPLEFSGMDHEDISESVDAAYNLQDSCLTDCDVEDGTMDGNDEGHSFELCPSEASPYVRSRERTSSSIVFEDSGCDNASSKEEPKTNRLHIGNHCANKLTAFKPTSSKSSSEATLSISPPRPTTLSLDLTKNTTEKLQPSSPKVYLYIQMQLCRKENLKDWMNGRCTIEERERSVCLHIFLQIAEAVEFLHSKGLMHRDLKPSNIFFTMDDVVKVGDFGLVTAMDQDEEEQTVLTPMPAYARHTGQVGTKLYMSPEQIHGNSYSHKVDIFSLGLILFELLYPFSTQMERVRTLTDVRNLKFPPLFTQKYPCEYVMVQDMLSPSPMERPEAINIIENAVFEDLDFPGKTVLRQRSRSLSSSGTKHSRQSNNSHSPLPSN

[17] = molecular target: T1, Receptor-interacting serine/threonine-protein kinase 1; remark: listed apart in the source
[18] = molecular target: T3, Receptor-interacting serine/threonine-protein kinase 3 (Homo sapiens, UniProt Q9Y572)
T3 sequence (Q9Y572 whole entry): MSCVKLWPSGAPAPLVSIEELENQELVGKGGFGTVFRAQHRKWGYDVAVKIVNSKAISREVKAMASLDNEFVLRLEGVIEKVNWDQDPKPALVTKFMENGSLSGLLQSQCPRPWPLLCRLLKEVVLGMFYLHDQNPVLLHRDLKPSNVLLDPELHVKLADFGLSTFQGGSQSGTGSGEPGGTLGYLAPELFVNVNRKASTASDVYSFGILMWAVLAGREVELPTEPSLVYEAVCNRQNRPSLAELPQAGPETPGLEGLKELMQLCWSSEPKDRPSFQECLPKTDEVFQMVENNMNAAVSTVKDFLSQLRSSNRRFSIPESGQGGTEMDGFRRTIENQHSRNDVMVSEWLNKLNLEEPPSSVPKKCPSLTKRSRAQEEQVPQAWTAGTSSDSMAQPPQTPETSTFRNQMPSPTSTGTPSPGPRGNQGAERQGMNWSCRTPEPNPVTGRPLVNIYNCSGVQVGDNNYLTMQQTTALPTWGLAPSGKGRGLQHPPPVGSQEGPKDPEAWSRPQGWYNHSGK

[19] = molecular target: T1, Receptor-interacting serine/threonine-protein kinase 1; remark: listed apart in the source
[20] = molecular target: T4, Regulator of chromosome condensation (Homo sapiens, UniProt P18754)
T4 sequence (P18754 whole entry): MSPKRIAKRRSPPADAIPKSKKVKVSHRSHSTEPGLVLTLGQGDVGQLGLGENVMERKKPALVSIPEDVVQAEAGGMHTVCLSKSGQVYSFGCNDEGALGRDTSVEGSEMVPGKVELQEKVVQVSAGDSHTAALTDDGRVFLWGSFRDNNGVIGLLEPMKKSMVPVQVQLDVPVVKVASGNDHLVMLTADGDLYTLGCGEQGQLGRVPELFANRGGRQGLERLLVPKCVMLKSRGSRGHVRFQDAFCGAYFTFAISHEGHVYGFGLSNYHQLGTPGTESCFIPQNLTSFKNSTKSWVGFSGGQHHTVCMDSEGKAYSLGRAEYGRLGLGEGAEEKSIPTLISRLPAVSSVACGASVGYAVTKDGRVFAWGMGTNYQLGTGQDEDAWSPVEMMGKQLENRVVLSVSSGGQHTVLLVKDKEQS

[21] = molecular target: T3, Receptor-interacting serine/threonine-protein kinase 3; remark: listed apart in the source
[22] = test system: U-937; test: cells; details: Homo sapiens, U-937, 48 h
[23] = test system: MEF; test: cells; details: Mus musculus, 48 h
[24] = test system: HT-29; test: cells; details: Homo sapiens, HT-29, 48 h
[25] = in vitro; details: mouse, L929 cells
[26] = molecular target: T1, Receptor-interacting serine/threonine-protein kinase 1; remark: listed apart in the source
[27] = test system: Jurkat; test: Antiproliferative activity against human Jurkat cells assessed as reduction in cell viability by MTT assay; assay type: functional, cell-based
[28] = molecular target: Indoleamine 2,3-dioxygenase 1 (Homo sapiens, UniProt P14902); test: Inhibition of IDO (unknown origin)
Indoleamine 2,3-dioxygenase 1, sequence (P14902 whole entry): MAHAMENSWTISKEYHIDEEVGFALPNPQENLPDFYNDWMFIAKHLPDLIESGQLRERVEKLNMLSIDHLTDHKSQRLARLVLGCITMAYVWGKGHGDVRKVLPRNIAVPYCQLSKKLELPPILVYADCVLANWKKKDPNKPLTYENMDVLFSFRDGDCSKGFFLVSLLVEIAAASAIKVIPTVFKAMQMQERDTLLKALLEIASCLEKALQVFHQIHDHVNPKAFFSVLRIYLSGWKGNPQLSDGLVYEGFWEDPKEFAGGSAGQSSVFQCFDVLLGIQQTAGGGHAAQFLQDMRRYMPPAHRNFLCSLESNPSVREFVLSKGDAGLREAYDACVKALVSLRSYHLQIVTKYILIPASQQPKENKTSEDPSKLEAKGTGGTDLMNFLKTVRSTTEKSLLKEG

[29] = clinical; details: human
[30] = molecular target: T5, Aurora kinase A (Homo sapiens, UniProt O14965)
T5 sequence (O14965 whole entry): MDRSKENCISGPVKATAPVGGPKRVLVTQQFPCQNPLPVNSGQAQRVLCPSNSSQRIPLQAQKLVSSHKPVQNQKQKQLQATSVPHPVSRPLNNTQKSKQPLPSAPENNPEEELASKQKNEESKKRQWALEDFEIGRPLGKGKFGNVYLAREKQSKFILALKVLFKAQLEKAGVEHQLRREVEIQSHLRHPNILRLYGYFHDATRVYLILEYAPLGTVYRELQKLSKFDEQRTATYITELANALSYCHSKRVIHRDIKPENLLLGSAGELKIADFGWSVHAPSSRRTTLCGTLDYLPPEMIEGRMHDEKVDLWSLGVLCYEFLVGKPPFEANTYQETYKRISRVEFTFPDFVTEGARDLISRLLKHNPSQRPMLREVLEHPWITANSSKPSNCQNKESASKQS

[31] = test system: L929; test: cells; details: Mus musculus
[32] = test system: HT-29; test: cells; details: Homo sapiens; remark: listed apart in the source
[33] = molecular target: T1, Receptor-interacting serine/threonine-protein kinase 1; remark: listed apart in the source
[34] = test system: TOV21G; test: cells; details: Homo sapiens
[35] = test system: U-937; test: cells; details: Homo sapiens
[36] = molecular target: Receptor-interacting serine/threonine-protein kinase 2 (Homo sapiens, UniProt O43353)
Receptor-interacting serine/threonine-protein kinase 2, sequence (O43353 whole entry): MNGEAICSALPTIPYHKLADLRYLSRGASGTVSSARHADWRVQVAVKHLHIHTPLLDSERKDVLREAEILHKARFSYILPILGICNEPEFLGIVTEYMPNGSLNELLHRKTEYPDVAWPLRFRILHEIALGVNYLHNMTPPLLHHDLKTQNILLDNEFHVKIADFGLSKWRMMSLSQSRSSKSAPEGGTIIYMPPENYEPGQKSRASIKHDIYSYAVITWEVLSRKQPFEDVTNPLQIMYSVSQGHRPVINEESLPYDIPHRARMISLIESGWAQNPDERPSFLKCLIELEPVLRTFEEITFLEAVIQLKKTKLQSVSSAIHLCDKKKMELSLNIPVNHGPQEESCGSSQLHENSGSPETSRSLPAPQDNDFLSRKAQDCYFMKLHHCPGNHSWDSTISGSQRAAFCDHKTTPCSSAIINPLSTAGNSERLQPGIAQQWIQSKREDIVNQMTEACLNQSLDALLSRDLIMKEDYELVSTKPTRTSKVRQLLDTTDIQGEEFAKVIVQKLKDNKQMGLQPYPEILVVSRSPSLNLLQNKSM

[37] = test system: HT-29; test: cells; details: Homo sapiens, HT-29, 24 h; remark: listed apart in the source
[38] = molecular target: T1, Receptor-interacting serine/threonine-protein kinase 1; remark: listed apart in the source
[39] = molecular target: T2, Eukaryotic translation initiation factor 2-alpha kinase 3; remark: listed apart in the source

SMILES: O=C(c1ccc(-c2cc3cccnc3[nH]2)cc1)N1CCOCC1
IC50 [5]: 88000 nM

SMILES: CC(C)(C)c1cc(NC(=O)Nc2ccc(-c3cn4c(n3)sc3cc(OCCN5CCOCC5)ccc34)cc2)no1 [QUIZARTINIB]
EC50 [8]: 66500 nM
EC50 [9]: 194 nM

SMILES: O=C(NCCc1ccccc1Cl)c1cn(-c2ccccc2)nn1
IC50 [4]: 250 nM

SMILES: O=C(NC1CCOCC1)c1nsc2ncc(-c3ccc4nc(NC(=O)C5CC5)sc4c3)cc12
EC50 [10]: 5 nM
IC50 [4]: 5.8 nM
EC50 [11]: 1.9 nM
Kd [12]: 13 nM
half-life [13]: > 1.5 h

SMILES: Cc1ccc(C(=O)Nc2ccc(CN3CCN(C)CC3)c(C(F)(F)F)c2)cc1C#Cc1cnc2cccnn12 [PONATINIB]
EC50 [7]: 89 nM
EC50 [14]: 50 nM

SMILES: Cn1cc(-c2ccc3c(c2)CCN3C(=O)Cc2cccc(C(F)(F)F)n2)c2c(N)ncnc21
IC50 [15]: 18.2 nM
IC50 [16]: 3.8 nM

SMILES: CCCCNc1nc2ccc([N+](=O)[O-])cc2[nH]1
EC50 [3]: 1700 nM

SMILES: Cc1cc(Nc2cc(N3CCN(C)CC3)nc(Nc3ccc(NC(=O)C4CC4)cc3)n2)n[nH]1
IC50 [17]: 170 nM

SMILES: CC(=O)Nc1nc2ccc(-c3cnc(Cl)c(NC(=O)Cc4ccccc4)c3)cc2s1
EC50 [22]: 1330 nM
IC50 [15]: 18.2 nM
EC50 [23]: 950 nM
EC50 [24]: 1200 nM
EC50 at 48 h [25]: 760 nM

SMILES: O=C(c1cc2c(-c3ccc(F)cc3)cccc2s1)N1CCOCC1
IC50 [26]: 110 nM

SMILES: CN1C(=O)C(Cc2c[nH]c3ccccc23)NC1=S (configuration not stated) [NECROSTATIN]
EC50 [27]: 540 nM
IC50 [28]: 39100 nM

SMILES: Cc1nnsc1C(=O)N[C@H](C)c1c(F)cccc1Cl
half-life [29]: 0.542 h
EC50 [6]: 400 nM

SMILES: CCCS(=O)(=O)Nc1ccc(F)c(C(=O)c2c[nH]c3ncc(-c4ccc(Cl)cc4)cc23)c1F [VEMURAFENIB]
EC50 [31]: 3750 nM

The next lines start with results.

IC50 [1]: 740 nM
SMILES: Cc1ccc(C2CC(=O)NC(SCC(=O)Nc3nccs3)=C2C#N)cc1 (configuration not stated)

EC50 [2]: 540 nM
EC50 [3]: 6410 nM
SMILES: COc1cc(/C=C/C(=O)N2CCC=CC2=O)cc(OC)c1OC [PIPLARTINE]

IC50 [4]: 95 nM
SMILES: Cc1ccc(F)c(NC(=O)Nc2ccc(-c3cccc4[nH]nc(N)c34)cc2)c1 [LINIFANIB]

IC50 [6]: 180 nM
SMILES: CN1C(=O)C(Cc2c[nH]c3c(Cl)cccc23)NC1=S (configuration not stated)

IC50 [7]: 2380 nM
SMILES: C[C@@H](Oc1cc(-c2cnn(C3CCNCC3)c2)cnc1N)c1c(Cl)ccc(F)c1Cl [CRIZOTINIB]

IC50 [6]: 210 nM
SMILES: CN1C(=O)NC(Cc2c[nH]c3ccccc23)C1=O (configuration not stated)

EC50 [7]: 254 nM
SMILES: Cc1ccc(Nc2nccc(N(C)c3ccc4c(C)n(C)nc4c3)n2)cc1S(N)(=O)=O [PAZOPANIB]

IC50 [7]: 185 nM
IC50 [18]: 366 nM
SMILES: CN1C(=O)[C@@H](Cc2c[nH]c3c(Cl)c(F)ccc23)N(C=O)C1=O

IC50 [19]: 6.49 nM
EC50 [20]: 18.7 nM
IC50 [21]: 18.6 nM
SMILES: CNC(=O)c1cc(Oc2ccc(NC(=O)Nc3cc(C(C)(C)C)nn3-c3ccc4ncccc4c3)c(F)c2)ccn1 [REBASTINIB]

IC50 [15]: 69.1 nM
IC50 [16]: 9.7 nM
SMILES: Cc1cccc(CC(=O)N2CCc3cc(-c4cn(C)c5ncnc(N)c45)ccc32)n1

IC50 [30]: 430 nM
IC50 [17]: 160 nM
SMILES: Cc1cc(Nc2cc(N3CCNCC3)nc(Nc3ccc(NC(=O)C4CC4)cc3)n2)n[nH]1

EC50 [32]: 19 nM
IC50 [33]: 12 nM
EC50 [34]: 52 nM
EC50 [14]: 19 nM
IC50 [18]: 10000 nM
EC50 [35]: 31 nM
IC50 [36]: 259 nM
SMILES: COc1cc(CCc2cc(NC(=O)c3ccc(N4C[C@@H](C)N[C@@H](C)C4)cc3)n[nH]2)cc(OC)c1 [FEXAGRATINIB]

EC50 [10]: 58 nM
SMILES: CC(=O)NC1=NC2C=CC(c3cnc4ccn(C(=O)OC5CCCCC5)c4c3)=CC2S1 (configuration not stated)
EC50 [11]: 26 nM

Kd [12]: 8.7 nM
SMILES: O=C(Nc1cn2cc(-c3cnc4c(c3)N(C(=O)OC3CCOCC3)CC4)ccc2n1)C1CC1

half-life [29]: 1 h
SMILES: CN1C(=O)N[C@@H](Cc2c[nH]c3c(Cl)cccc23)C1=O

EC50 [37]: 1050 nM
SMILES: O=[N+]([O-])c1ccn(Cc2ccc(Cl)cc2Cl)n1

IC50 [38]: 2.9 nM
IC50 [39]: > 5000 nM
SMILES: Cn1cc(-c2ccc3c(c2)CCN3C(=O)Cc2ccc(C(F)(F)F)cn2)c2c(N)ncnc21
